Laboratory results published in patent publication EP4752152A1, “STEROID COMPOUND, AND PREPARATION METHOD THEREFOR AND USE THEREOF” (Cholesgen (Shanghai) Co.Ltd., priority 2023, dated 2025).

Tested on: SREBP pathway
Test: SREBP luciferase reporter gene system (SRE-luciferase assay)
Assay type: cell-based, human
Settings: Huh-7/SRE-luc cells, sterol-deficient medium, 0.01-10 µM
Summary of the method: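 Huh-7 cells stably carrying LDLR promoter-luciferase plus GFP were treated 16 h in sterol-deficient medium (5% lipoprotein-deficient serum, 2 µM lovastatin, 10 µM mevalonic acid) at 0.01–10 µM. Luciferase/GFP ratio measured as pathway activity; inhibition versus DMSO fitted to a four-parameter model for IC50.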

COc1nc(C)ccc1C(O)CCC[C@@H](C)[C@H]1CC[C@H]2[C@H]3[C@H](CC[C@]12C)[C@@]1(C)CC[C@H](O)[C@H](O)[C@@H]1CC3(F)F (single isomer, unassigned) [Compound 218, (1R,3aS,3bS,5aR,6R,7S,9aR,9bS,11aR)-4,4-difluoro-1-[(2R,6R)-6-hydroxy-6-(2-methoxy-6-methylpyridin-3-yl)hexan-2-yl]-9a,11a-dimethylhexadecahydro-1H-cyclopenta[1,2-a]phenanthrene-6,7-diol or (1R,3aS,3bS,5aR,6R,7S,9aR,9bS,11aR)-4,4-difluoro-1-[(2R,6S)-6-hydroxy-6-(2-methoxy-6-methylpyridin-3-yl)hexan-2-yl]-9a,11a-dimethylhexadecahydro-1H-cyclopenta[1,2-a]phenanthrene-6,7-diol] was tested, and the IC50 (16 hours) was 0.141 µM.

With C[C@H](CCCC(O)c1cnc2c(c1)OC(F)(F)O2)[C@H]1CC[C@H]2[C@H]3[C@H](CC[C@]12C)[C@@]1(C)CC[C@H](O)[C@H](O)[C@@H]1CC3(F)F (single isomer, unassigned) [Compound 285] the IC50 (Homo sapiens, Huh-7, 16 h) was 0.253 µM.

C[C@H](CCC[C@@H](O)c1n[nH]c2ccccc12)[C@H]1CC[C@H]2[C@H]3[C@H](CC[C@]12C)[C@@]1(C)CC[C@H](O)[C@H](O)[C@@H]1CC3(F)F (stereo in doubt) [Compound 320, (1R,3aS,3bS,5aR,6R,7S,9aR,9bS,11aR)-4,4-difluoro-1-[(2R,6R)-6-hydroxy-6-(1H-indazol-3-yl)hexan-2-yl]-9a,11a-dimethylhexadecahydro-1H-cyclopenta[1,2-a]phenanthrene-6,7-diol] was tested, and the IC50 (Homo sapiens, Huh-7, 16 h) was 0.207 µM.

C[C@H](CCCC(O)c1ccccc1F)[C@H]1CC[C@H]2C3=C(F)C[C@H]4[C@@H](O)[C@@H](O)CC[C@]4(C)[C@H]3CC[C@]12C (stereo partly drawn) [Compound 4, (1R,3aR,5aR,6R,7S,9aR,9bR,11aR)-4-fluoro-1-[(2R)-6-(2-fluorophenyl)-6-hydroxyhexan-2-yl]-9a,11a-dimethyl-2,3,3a,5,5a,6,7,8,9,9a,9b,10,11,11a-tetradecahydro-1H-cyclopenta[1,2-a]phenanthrene-6,7-diol] was tested, and the IC50 (Homo sapiens, Huh-7, 16 h) was 0.09 µM.

C[C@H](CCC[C@H](O)c1ccccn1)[C@H]1CC[C@H]2[C@H]3[C@H](CC[C@]12C)[C@@]1(C)CC[C@H](O)[C@H](O)[C@@H]1CC3(F)F [Compound 91, (1R,3aS,3bS,5aR,6R,7S,9aR,9bS,11aR)-4,4-difluoro-1-[(2R,6S)-6-hydroxy-6-(pyridin-2-yl)hexan-2-yl]-9a,11a-dimethylhexadecahydro-1H-cyclopenta[1,2-a]phenanthrene-6,7-diol] was tested, and the IC50 (Homo sapiens, Huh-7, 16 h) was 0.378 µM.

COc1ccnc(F)c1[C@@H](O)CCC[C@@H](C)[C@H]1CC[C@H]2[C@H]3[C@H](CC[C@]12C)[C@@]1(C)CC[C@H](O)[C@H](O)[C@@H]1CC3(F)F (single isomer, unassigned) [Compound 229] was tested, and the IC50 (Homo sapiens, Huh-7, 16 h) was 0.049 µM.

COc1nc(F)ccc1C(C)(O)CCC[C@@H](C)[C@H]1CC[C@H]2[C@H]3[C@H](CC[C@]12C)[C@@]1(C)CC[C@H](O)[C@H](O)[C@@H]1CC3(F)F (stereo partly drawn) [Compound 308, (1R,3aS,3bS,5aR,6R,7S,9aR,9bS,11aR)-4,4-difluoro-1-[(2R)-6-(6-fluoro-2-methoxypyridin-3-yl)-6-hydroxyheptan-2-yl]-9a,11a-dimethylhexadecahydro-1H-cyclopenta[1,2-a]phenanthrene-6,7-diol] was tested, and the IC50 (Homo sapiens, Huh-7, 16 h) was 0.112 µM.

With COc1cccc(F)c1C(CCC[C@@H](C)[C@H]1CC[C@H]2[C@H]3[C@H](CC[C@]12C)[C@@]1(C)CC[C@H](O)[C@H](O)[C@@H]1CC3(F)F)=NO (single isomer, unassigned) [Compound 211, [(1Z,5R)-5-[(1R,3aS,3bS,5aR,6R,7S,9aS,9bS,11aR)-4,4-difluoro-6,7-dihydroxy-9a,9b,11a-trimethylhexadecahydro-1H-cyclopenta[1,2-a]phenanthren-1-yl]-1-(2-fluoro-6-methoxyphenyl)hexylidene]hydroxylamine or [(1E,5R)-5-[(1R,3aS,3bS,5aR,6R,7S,9aR,9bS,11aR)-4,4-difluoro-6,7-dihydroxy-9a,11a-dimethylhexadecahydro-1H-cyclopenta[1,2-a]phenanthren-1-yl]-1-(2-fluoro-6-methoxyphenyl)hexylidene]hydroxylamine] the IC50 (Homo sapiens, Huh-7, 16 h) was 0.08 µM.

With COc1nc(F)ccc1[C@@](C)(O)CCC[C@@H](C)[C@H]1CC[C@H]2[C@H]3[C@H](CC[C@]12C)[C@@]1(C)CC[C@H](O)[C@H](O)[C@@H]1CC3(F)F [Compound 309, (1R,3aS,3bS,5aR,6R,7S,9aR,9bS,11aR)-4,4-difluoro-1-[(2R,6S)-6-(6-fluoro-2-methoxypyridin-3-yl)-6-hydroxyheptan-2-yl]-9a,11a-dimethylhexadecahydro-1H-cyclopenta[1,2-a]phenanthrene-6,7-diol] the IC50 (Homo sapiens, Huh-7, 16 h) was 0.143 µM.

For C[C@H](CCCC(O)c1cncc2c1cnn2C)[C@H]1CC[C@H]2[C@H]3[C@H](CC[C@]12C)[C@@]1(C)CC[C@H](O)[C@H](O)[C@@H]1CC3(F)F (single isomer, unassigned) [Compound 287, (1R,3aS,3bS,5aR,6R,7S,9aR,9bS,11aR)-4,4-difluoro-1-[(2R,6S)-6-hydroxy-6-(1-methylpyrazolo[3,4-c]pyridin-4-yl)hexan-2-yl]-9a,11a-dimethylhexadecahydro-1H-cyclopenta[1,2-a]phenanthrene-6,7-diol or (1R,3aS,3bS,5aR,6R,7S,9aR,9bS,11aR)-4,4-difluoro-1-[(2R,6R)-6-hydroxy-6-(1-methylpyrazolo[3,4-c]pyridin-4-yl)hexan-2-yl]-9a,11a-dimethylhexadecahydro-1H-cyclopenta[1,2-a]phenanthrene-6,7-diol], the IC50 (16 hours) was 0.131 µM.

Molecule C[C@H](CCCC(O)c1ncco1)[C@H]1CC[C@H]2[C@H]3[C@H](CC[C@]12C)[C@@]1(C)CC[C@H](O)[C@H](O)[C@@H]1CC3(F)F (stereo partly drawn) [Compound 99, (1R,3aS,3bS,5aR,6R,7S,9aR,9bS,11aR)-4,4-difluoro-1-[(2R)-6-hydroxy-6-(1,3-oxazol-2-yl)hexan-2-yl]-9a,11a-dimethylhexadecahydro-1H-cyclopenta[1,2-a]phenanthrene-6,7-diol] has an IC50 (Homo sapiens, Huh-7, 16 h) of 0.243 µM.

C[C@H](CCCC(O)c1cnc2c(c1)OC(F)(F)O2)[C@H]1CC[C@H]2[C@H]3[C@H](CC[C@]12C)[C@@]1(C)CC[C@H](O)[C@H](O)[C@@H]1CC3(F)F (single isomer, unassigned) [Compound 286] was tested, and the IC50 (16 hours) was 0.26 µM.

In the case of C[C@H](CCC1CC(=O)C1)[C@H]1CC[C@H]2[C@@H]3CC[C@H]4C[C@@H](O)CC[C@]4(C)[C@H]3CC[C@]12C [Compound 129, 3-[(3R)-3-[(1R,3aS,3bR,5aS,7S,9aS,9bS,11aR)-7-hydroxy-9a,11a-dimethylhexadecahydro-1H-cyclopenta[1,2-a]phenanthren-1-yl]butyl]cyclobutan-1-one], the IC50 (Homo sapiens, Huh-7, 16 h) is reported as 0.32 µM.

Molecule COc1cc(F)c(C(O)CCC[C@@H](C)[C@H]2CC[C@H]3[C@H]4[C@H](CC[C@]23C)[C@@]2(C)CC[C@H](O)[C@H](O)[C@@H]2CC4(F)F)c(OC)c1 (stereo partly drawn) [Compound 182, (1R,3aS,3bS,5aR,6R,7 S,9aR,9bS,11aR)-4,4-Difluoro-1-[(2R)-6-(2-fluoro-4,6-dimethoxyphenyl)-6-hydroxyhexan-2-yl]-9a,11a-dimethylhexadecahydro-1H-cyclopenta[1,2-a]phenanthrene-6,7-diol] has an IC50 (Homo sapiens, Huh-7, 16 h) of 0.121 µM.

COc1c(C(O)CCC[C@@H](C)[C@H]2CC[C@H]3[C@H]4[C@H](CC[C@]23C)[C@@]2(C)CC[C@H](O)[C@H](O)[C@@H]2CC4(F)F)ccc[n+]1[O-] (stereo partly drawn) [Compound 267, 3-[(5R)-5-[(1R,3aS,3bS,5aR,6R,7S,9aR,9bS,11aR)-4,4-difluoro-6,7-dihydroxy-9a,11a-dimethylhexadecahydro-1H-cyclopenta[1,2-a]phenanthren-1-yl]-1-hydroxyhexyl]-2-methoxypyridine-1-oxide] was tested, and the IC50 (Homo sapiens, Huh-7, 16 h) was 0.424 µM.

In the case of C[C@H](CCCC(O)c1cccc2nnn(C)c12)[C@H]1CC[C@H]2[C@H]3[C@H](CC[C@]12C)[C@@]1(C)CC[C@H](O)[C@H](O)[C@@H]1CC3(F)F (single isomer, unassigned) [Compound 277, (1R,3aS,3bS,5aR,6R,7S,9aR,9bS,11aR)-4,4-difluoro-1-[(2R,6S)-6-hydroxy-6-(3-methylbenzo[d][1,2,3]triazol-4-yl)hexan-2-yl]-9a,11a-dimethylhexadecahydro-1H-cyclopenta[1,2-a]phenanthrene-6,7-diol or (1R,3aS,3bS,5aR,6R,7S,9aR,9bS,11aR)-4,4-difluoro-1-[(2R,6R)-6-hydroxy-6-(3-methylbenzo[d][1,2,3]triazol-4-yl)hexan-2-yl]-9a,11a-dimethylhexadecahydro-1H-cyclopenta[1,2-a]phenanthrene-6,7-diol], the IC50 (Homo sapiens, Huh-7, 16 h) is reported as 0.369 µM.

With COc1ccnc(F)c1C(O)CCC[C@@H](C)[C@H]1CC[C@H]2C3=C(F)C[C@H]4[C@@H](O)[C@@H](O)CC[C@]4(C)[C@H]3CC[C@]12C (stereo partly drawn) [Compound 150, (1R,3aR,5aR,6R,7S,9aR,9bR,11aR)-4-fluoro-1-[(2R)-6-(2-fluoro-4-methoxypyridin-3-yl)-6-hydroxyhexan-2-yl]-9a,11a-dimethyl-2,3,3a,5,5a,6,7,8,9,9a,9b,10,11,11a-tetradecahydro-1H-cyclopenta[1,2-a]phenanthrene-6,7-diol] the IC50 (Homo sapiens, Huh-7, 16 h) was 0.19 µM.

With COc1cc(F)ccc1[C@@H](O)CCC[C@@H](C)[C@H]1CC[C@H]2C3=C(F)C[C@H]4[C@@H](O)[C@@H](O)CC[C@]4(C)[C@H]3CC[C@]12C [Compound 133, (1R,3aR,5aR,6R,7S,9aR,9bR,11aR)-4-fluoro-1-[(2R,6S)-6-(4-fluoro-2-methoxyphenyl)-6-hydroxyhexan-2-yl]-9a,11a-dimethyl-2,3,3a,5,5a,6,7,8,9,9a,9b,10,11,11a-tetradecahydro-1H-cyclopenta[1,2-a]phenanthrene-6,7-diol] the IC50 (Homo sapiens, Huh-7, 16 h) was 0.095 µM.

C[C@H](CCCC1(O)CC1)[C@H]1CC[C@H]2[C@H]3[C@H](CC[C@]12C)[C@@]1(C)CC[C@H](O)[C@H](O)[C@@H]1CC3(F)F [Compound 93, (1R,3aS,3bS,5aR,6R,7S,9aR,9bS,11aR)-4,4-difluoro-1-[(2R)-5-(hydroxycyclopropyl)pentan-2-yl]-9a,11a-dimethylhexadecahydro-1H-cyclopenta[1,2-a]phenanthrene-6,7-diol] was tested, and the IC50 (Homo sapiens, Huh-7, 16 h) was 0.613 µM.
